Results: patent US20230143604A1, “QW DOSING OF GIP RECEPTOR AGONIST PEPTIDE COMPOUNDS AND USES THEREOF” (TAKEDA PHARMACEUTICAL COMPANY LIMITED, priority 2020, published 2023)
Starred links: 1 amine or outer side, 2 acyl side, 3 side chain; linkers in the order of their positions; H or OH if unused. Non-standard residues stand in square brackets, D forms with d. Residues, ends and D or L forms follow the SMILES beside them. Groups on a side chain read outwards from the residue. *: point of attachment. C17 diacid = O=C(O)CCCCCCCCCCCCCCCC(=O)*; γGlu = O=C(O)[C@H](CCC(=O)[*:2])N[*:1]; NMeY = CN[C@@H](Cc1ccc(O)cc1)C(=O)O; AEEA = NCCOCCOCC(=O)O; Aib = CC(C)(N)C(=O)O

assay: Solubility in phosphate buffer pH 7.4; conditions: pH 7.4, aqueous buffer, pH 7.4 Phosphate Buffer - Solubility, 200 mM Phosphate buffer pH 7.4
Procedure, shortened: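 Solubility at pH 7.4 determined by stepwise addition of 200 mM phosphate buffer in 100 μL increments to 3 mg peptide, mixing briefly each time, until no insoluble material remained, then measured by liquid chromatography.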

For `CC[C@H](C)[C@H](NC(=O)[C@H](CO)NC(=O)[C@H](Cc1ccc(O)cc1)NC(=O)[C@H](CC(=O)O)NC(=O)[C@H](CO)NC(=O)[C@@H](NC(=O)[C@H](Cc1ccccc1)NC(=O)[C@@H](NC(=O)CNC(=O)[C@H](CCC(=O)O)NC(=O)C(C)(C)NC(=O)[C@H](Cc1ccc(O)cc1)NC)[C@@H](C)O)[C@@H](C)CC)C(=O)N[C@@H](C)C(=O)N[C@@H](CC(C)C)C(=O)N[C@@H](CC(=O)O)C(=O)N[C@@H](CCCNC(=N)N)C(=O)N[C@@H](CCCCNC(=O)CNC(=O)CNC(=O)CNC(=O)CNC(=O)CNC(=O)CCCCCCCCCCCCCCCC(=O)O)C(=O)N[C@@H](Cc1c[nH]cn1)C(=O)N[C@@H](CCC(N)=O)C(=O)NC(C)(C)C(=O)N[C@@H](CC(N)=O)C(=O)N[C@@H](Cc1ccccc1)C(=O)N[C@H](C(=O)N[C@@H](CC(N)=O)C(=O)N[C@@H](Cc1c[nH]c2ccccc12)C(=O)N[C@@H](CC(C)C)C(=O)N[C@@H](CC(C)C)C(=O)N[C@@H](C)C(=O)N[C@@H](CCC(N)=O)C(=O)N[C@@H](CCCNC(=N)N)C(=O)N1CCC[C@H]1C(=O)N[C@@H](CO)C(=O)N[C@@H](CO)C(=O)NCC(=O)N[C@@H](C)C(=O)N1CCC[C@H]1C(=O)N1CCC[C@H]1C(=O)N1CCC[C@H]1C(=O)N[C@@H](CO)C(=O)O)C(C)C` [Compound 259], which solubility is on record?
Its solubility is under 6000 µg/mL.

Which solubility does the source give for `CC[C@H](C)[C@H](NC(=O)[C@H](CO)NC(=O)[C@H](Cc1ccc(O)cc1)NC(=O)[C@H](CC(=O)O)NC(=O)[C@H](CO)NC(=O)[C@@H](NC(=O)[C@H](Cc1ccccc1)NC(=O)[C@@H](NC(=O)CNC(=O)[C@H](CCC(=O)O)NC(=O)C(C)(C)NC(=O)[C@H](Cc1ccc(O)cc1)NC)[C@@H](C)O)[C@@H](C)CC)C(=O)N[C@@H](C)C(=O)N[C@@H](CCCCNC(=O)CNC(=O)CNC(=O)CNC(=O)CNC(=O)CNC(=O)CC[C@H](NC(=O)CCCCCCCCCCCCCCCC(=O)O)C(=O)O)C(=O)N[C@@H](CC(=O)O)C(=O)N[C@@H](CCCNC(=N)N)C(=O)NC(C)(C)C(=O)N[C@@H](C)C(=O)N[C@@H](CCC(N)=O)C(=O)NC(C)(C)C(=O)N[C@@H](CC(N)=O)C(=O)N[C@@H](Cc1ccccc1)C(=O)N[C@H](C(=O)N[C@@H](CC(N)=O)C(=O)N[C@@H](Cc1c[nH]c2ccccc12)C(=O)N[C@@H](CC(C)C)C(=O)N[C@@H](CC(C)C)C(=O)N[C@@H](C)C(=O)N[C@@H](CCC(N)=O)C(=O)N[C@@H](CCCNC(=N)N)C(=O)N1CCC[C@H]1C(=O)N[C@@H](CO)C(=O)N[C@@H](CO)C(=O)NCC(=O)N[C@@H](C)C(=O)N1CCC[C@H]1C(=O)N1CCC[C@H]1C(=O)N1CCC[C@H]1C(=O)N[C@@H](CO)C(N)=O)C(C)C` [Compound 260] here?
The solubility was under 6000 µg/mL.

With `CC[C@H](C)[C@H](NC(=O)[C@H](Cc1ccccc1)NC(=O)[C@@H](NC(=O)CNC(=O)[C@H](CCC(=O)O)NC(=O)C(C)(C)NC(=O)[C@H](Cc1ccc(O)cc1)NC)[C@@H](C)O)C(=O)N[C@@H](CO)C(=O)N[C@@H](CC(=O)O)C(=O)N[C@@H](Cc1ccc(O)cc1)C(=O)N[C@@H](CO)C(=O)N[C@H](C(=O)NC(C)(C)C(=O)N[C@@H](CCCCNC(=O)CNC(=O)CNC(=O)CNC(=O)CNC(=O)CNC(=O)CC[C@H](NC(=O)CCCCCCCCCCCCCCCC(=O)O)C(=O)O)C(=O)N[C@@H](CC(=O)O)C(=O)N[C@@H](CCCNC(=N)N)C(=O)NC(C)(C)C(=O)N[C@@H](C)C(=O)N[C@@H](CCC(N)=O)C(=O)NC(C)(C)C(=O)N[C@@H](CC(N)=O)C(=O)N[C@@H](Cc1ccccc1)C(=O)N[C@H](C(=O)N[C@@H](CC(N)=O)C(=O)N[C@@H](Cc1c[nH]c2ccccc12)C(=O)N[C@@H](CC(C)C)C(=O)N[C@@H](CC(C)C)C(=O)N[C@@H](C)C(=O)N[C@@H](CCC(N)=O)C(=O)N[C@@H](CCCNC(=N)N)C(=O)N1CCC[C@H]1C(=O)N[C@@H](CO)C(=O)N[C@@H](CO)C(=O)NCC(=O)N[C@@H](C)C(=O)N1CCC[C@H]1C(=O)N1CCC[C@H]1C(=O)N1CCC[C@H]1C(=O)N[C@@H](CO)C(N)=O)C(C)C)[C@@H](C)CC` [Compound 261] as the molecule, how does the solubility read?
The solubility was under 6000 µg/mL.

Which solubility does the source give for `CC[C@H](C)[C@H](NC(=O)[C@H](Cc1ccccc1)NC(=O)[C@@H](NC(=O)CNC(=O)[C@H](CCC(=O)O)NC(=O)C(C)(C)NC(=O)[C@H](Cc1ccc(O)cc1)NC)[C@@H](C)O)C(=O)N[C@@H](CO)C(=O)N[C@@H](CC(=O)O)C(=O)N[C@@H](Cc1ccc(O)cc1)C(=O)N[C@@H](CO)C(=O)N[C@H](C(=O)NC(C)(C)C(=O)N[C@@H](CCCCNC(=O)CNC(=O)CNC(=O)CNC(=O)CNC(=O)CNC(=O)CC[C@H](NC(=O)CCCCCCCCCCCCCCCCC(=O)O)C(=O)O)C(=O)N[C@@H](CC(=O)O)C(=O)N[C@@H](CCCNC(=N)N)C(=O)NC(C)(C)C(=O)N[C@@H](C)C(=O)N[C@@H](CCC(N)=O)C(=O)NC(C)(C)C(=O)N[C@@H](CC(N)=O)C(=O)N[C@@H](Cc1ccccc1)C(=O)N[C@H](C(=O)N[C@@H](CC(N)=O)C(=O)N[C@@H](Cc1c[nH]c2ccccc12)C(=O)N[C@@H](CC(C)C)C(=O)N[C@@H](CC(C)C)C(=O)N[C@@H](C)C(=O)N[C@@H](CCC(N)=O)C(=O)N[C@@H](CCCNC(=N)N)C(=O)N1CCC[C@H]1C(=O)N[C@@H](CO)C(=O)N[C@@H](CO)C(=O)NCC(=O)N[C@@H](C)C(=O)N1CCC[C@H]1C(=O)N1CCC[C@H]1C(=O)N1CCC[C@H]1C(=O)N[C@@H](CO)C(N)=O)C(C)C)[C@@H](C)CC` [Compound 262] here?
Its solubility is under 6000 µg/mL.

With `CC[C@H](C)[C@H](NC(=O)[C@H](Cc1ccccc1)NC(=O)[C@@H](NC(=O)CNC(=O)[C@H](CCC(=O)O)NC(=O)C(C)(C)NC(=O)[C@H](Cc1ccc(O)cc1)NC)[C@@H](C)O)C(=O)N[C@@H](CO)C(=O)N[C@@H](CC(=O)O)C(=O)N[C@@H](Cc1ccc(O)cc1)C(=O)N[C@@H](CO)C(=O)N[C@H](C(=O)NC(C)(C)C(=O)N[C@@H](CCCCNC(=O)COCCOCCNC(=O)COCCOCCNC(=O)CC[C@H](NC(=O)CCCCCCCCCCCCCCCC(=O)O)C(=O)O)C(=O)N[C@@H](CC(=O)O)C(=O)N[C@@H](CCCNC(=N)N)C(=O)NC(C)(C)C(=O)N[C@@H](C)C(=O)N[C@@H](CCC(N)=O)C(=O)NC(C)(C)C(=O)N[C@@H](CC(N)=O)C(=O)N[C@@H](Cc1ccccc1)C(=O)N[C@H](C(=O)N[C@@H](CC(N)=O)C(=O)N[C@@H](Cc1c[nH]c2ccccc12)C(=O)N[C@@H](CC(C)C)C(=O)N[C@@H](CC(C)C)C(=O)N[C@@H](C)C(=O)N[C@@H](CCC(N)=O)C(=O)N[C@@H](CCCNC(=N)N)C(=O)N1CCC[C@H]1C(=O)N[C@@H](CO)C(=O)N[C@@H](CO)C(=O)NCC(=O)N[C@@H](C)C(=O)N1CCC[C@H]1C(=O)N1CCC[C@H]1C(=O)N1CCC[C@H]1C(=O)N[C@@H](CO)C(N)=O)C(C)C)[C@@H](C)CC` [Compound 263] (H-[NMeY][Aib]EGTFISDYSI[Aib]K([AEEA-AEEA-γGlu-C17 diacid])DR[Aib]AQ[Aib]NFVNWLLAQRPSSGAPPPS-NH2) as the molecule, how does the solubility read?
Its solubility is at least 7500 µg/mL.
